Measurements from US8017612B2, “Piperazine compound and use thereof as a HCV polymerase inhibitor” (priority 2006, dated 2011).

Assays:
[1] = target: T1, HCV polymerase (NS5B) type 1b (Hepatitis C virus genotype 1b, UniProt P26663); assay: Assay of enzyme (HCV polymerase) inhibitory activity, type 1b enzyme; format: biochemical, HCV BK strain (type 1b)
T1 construct: a region encoding NS5B (J Virol 1991 March, 65(3), 1105-13, 544 amino acids after deletion of 47 amino acids on the C-terminal); 6xHis (C); made in house; host or cells: Escherichia coli
Procedure, shortened: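 IC50 derived from [3H]UTP incorporation into TCA-insoluble RNA, compared with and without test compound. Reaction (25 °C, 60 min, Tris pH 7.5, 5 mM MgCl2): E. coli-expressed 1b NS5B Δ47 with His tag at 0.5 μg/ml, 5 μg/ml run-off substrate RNA, ATP/GTP/CTP 50 μM, UTP 2 μM.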

[2] = target: T2, HCV polymerase (NS5B) type 1a (Hepatitis C virus genotype 1a, UniProt P26664); assay: Assay of enzyme (HCV polymerase) inhibitory activity, type 1a enzyme; format: biochemical, HCV type 1a (cloned from the blood of patients)
T2 construct: made in house; host or cells: Escherichia coli (by the 'similar method' of the 1b enzyme)
Procedure, shortened: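 Reactions ran 60 min at 25° C in 20 mM Tris-HCl pH 7.5, 5 mM MgCl2, 50 mM NaCl, holding genotype 1a NS5B (1.5 μg/ml, Δ47 C-terminus, 6His), substrate RNA 5 μg/ml, UTP 2 μM with tritiated UTP and other NTPs 50 μM. IC50 derived from incorporated radiolabel in filter-trapped RNA relative to uninhibited reaction.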

[3] = HCV polymerase inhibitory activity (IC50), 1b, type 1b enzyme 0.5 μg/ml, 25° C., 60 min
[4] = HCV polymerase inhibitory activity (IC50), 1a, type 1a enzyme 1.5 μg/ml, 25° C., 60 min
[5] = HCV polymerase inhibitory activity IC50, 1b, type 1b enzyme
[6] = HCV polymerase inhibitory activity IC50, 1a, type 1a enzyme

| SMILES | IC50 [1, 3] [µM] | IC50 [2, 4] [µM] | IC50 [1, 5] [µM] | IC50 [2, 6] [µM] |
| --- | --- | --- | --- | --- |
| CCOC(=O)Cn1nnnc1CC(=O)N1CCN(S(=O)(=O)c2ccc(OC(F)(F)F)cc2)[C@@H](C(=O)NCc2ccc(C(F)(F)CC)cc2)C1 [Example 533, (5-{2-[(R)-3-[4-(1,1-difluoro-propyl)-benzylcarbamoyl]-4-(4-trifluoromethoxy-benzenesulfonyl)-piperazin-1-yl]-2-oxo-ethyl}-tetrazol-1-yl)-acetic acid ethyl ester] | > 1 | > 1 | – | – |
| O=C(O)c1n[nH]c(=O)c2sc(N3CCN(S(=O)(=O)c4ccc(OC(F)(F)F)cc4)[C@@H](C(=O)NCc4ccc(OC(F)(F)F)cc4)C3)nc12 [Example 874, 7-oxo-2-[(R)-4-(4-trifluoromethoxy-benzenesulfonyl)-3-(4-trifluoromethoxy-benzylcarbamoyl)-piperazin-1-yl]-6,7-dihydro-thiazolo[4,5-d]pyridazine-4-carboxylic acid] | – | – | < 0.1 | < 0.1 |
| CC(C)c1ccc(CNC(=O)[C@H]2CN(c3ccc(C(=O)O)nn3)CCN2S(=O)(=O)c2ccc(C(F)(F)F)cc2)cc1 [Example 376, 6-[(R)-3-(4-isopropyl-benzylcarbamoyl)-4-(4-trifluoromethyl-benzenesulfonyl)-piperazin-1-yl]-pyridazine-3-carboxylic acid] | < 0.1 | < 0.1 | – | – |
| O=C(NCc1ccc(OC(F)(F)F)cc1)[C@H]1CN(c2nn3cnnc3s2)CCN1S(=O)(=O)c1ccc(OC(F)(F)F)cc1 [Example 922, (R)-4-[1,2,4]triazolo[3,4-b][1,3,4]thiadiazol-6-yl-1-(4-trifluoromethoxy-benzenesulfonyl)-piperazine-2-carboxylic acid 4-trifluoromethoxy-benzylamide] | – | – | < 0.1 | < 0.1 |
| CCC(F)(F)c1ccc(CNC(=O)[C@H]2CN(C(=O)Nc3ccnc(C(=O)N(C)C)c3)CCN2S(=O)(=O)c2ccc(OC(F)(F)F)cc2)cc1 [Example 504, (R)-4-(4-trifluoromethoxy-benzenesulfonyl)-piperazine-1,3-dicarboxylic acid 3-[4-(1,1-difluoro-propyl)-benzylamide] 1-[(2-dimethylcarbamoyl-pyridin-4-yl)-amide]] | < 0.1 | < 0.1 | – | – |
| CC(=O)N1CCN(S(=O)(=O)C2CCCCC2)C(C(=O)NCc2ccc(C(F)(F)F)cc2)C1 (stereo not drawn) [Example 196, 4-acetyl-1-cyclohexanesulfonyl-piperazine-2-carboxylic acid 4-trifluoromethyl-benzylamide] | > 1 | > 1 | – | – |
| CCC(F)(F)c1ccc(CNC(=O)[C@H]2CN(c3cnc4cnccc4n3)CCN2S(=O)(=O)c2ccc(Cl)cc2)cc1 [Example 713, (R)-1-(4-chloro-benzenesulfonyl)-4-pyrido[3,4-b]pyrazin-2-yl-piperazine-2-carboxylic acid 4-(1,1-difluoro-propyl)-benzylamide] | – | – | < 0.1 | < 0.1 |
| COCc1ncc2sc(N3CCN(S(=O)(=O)c4ccc(OC(F)(F)F)cc4)[C@@H](C(=O)NCc4ccc(OC(F)(F)F)cc4)C3)nc2n1 [Example 1043, (R)-4-(5-methoxymethyl-thiazolo[4,5-d]pyrimidin-2-yl)-1-(4-trifluoromethoxy-benzenesulfonyl)-piperazine-2-carboxylic acid 4-trifluoromethoxy-benzylamide] | – | – | < 0.1 | < 0.1 |
| CC(C)c1ccc(CNC(=O)[C@H]2CN(C(=O)Cn3ccnn3)CCN2S(=O)(=O)c2ccc(C(F)(F)F)cc2)cc1 [Example 220, (R)-4-(2-[1,2,3]triazol-1-yl-acetyl)-1-(4-trifluoromethyl-benzenesulfonyl)-piperazine-2-carboxylic acid 4-isopropyl-benzylamide] | < 0.1 | < 0.1 | – | – |
| Cc1nn(C)c2nc(N3CCN(S(=O)(=O)c4ccc(OC(F)(F)F)cc4)[C@@H](C(=O)NCc4ccc(OC(F)(F)F)cc4)C3)sc12 [Example 980, (R)-4-(1,3-dimethyl-1H-pyrazolo[3,4-d]thiazol-5-yl)-1-(4-trifluoromethoxy-benzenesulfonyl)-piperazine-2-carboxylic acid 4-trifluoromethoxy-benzylamide] | – | – | < 0.1 | < 0.1 |
| COc1nc(C(F)(F)F)nc2nc(N3CCN(S(=O)(=O)c4ccc(OC(F)(F)F)cc4)[C@@H](C(=O)NCc4ccc(OC(F)(F)F)cc4)C3)sc12 [Example 1022, (R)-4-(7-methoxy-5-trifluoromethyl-thiazolo[4,5-d]pyrimidin-2-yl)-1-(4-trifluoromethoxy-benzenesulfonyl)-piperazine-2-carboxylic acid 4-trifluoromethoxy-benzylamide] | – | – | 0.1 to 1 | 0.1 to 1 |
| CCCc1ccc(CNC(=O)[C@H]2CN(c3nc4cn[nH]c(=O)c4s3)CCN2S(=O)(=O)c2ccc(CC)cc2)cc1 [Example 812, (R)-1-(4-ethyl-benzenesulfonyl)-4-(7-oxo-6,7-dihydro-thiazolo[4,5-d]pyridazin-2-yl)-piperazine-2-carboxylic acid 4-propyl-benzylamide] | – | – | < 0.1 | < 0.1 |
| O=C(NCc1ccc(OC(F)F)cc1F)[C@H]1CN(c2nc3nc(Cl)ncc3s2)CCN1S(=O)(=O)c1ccc(OC(F)(F)F)cc1 [Example 997, (R)-4-(5-chloro-thiazolo[4,5-d]pyrimidin-2-yl)-1-(4-trifluoromethoxy-benzenesulfonyl)-piperazine-2-carboxylic acid 4-difluoromethoxy-2-fluoro-benzylamide] | – | – | < 0.1 | < 0.1 |
| CC(C)c1ccc(S(=O)(=O)N2CCN(C(=O)c3ccccc3)CC2C(=O)NCc2ccc(C(F)(F)F)cc2)cc1 (stereo not drawn) [Example 123, 4-benzoyl-1-(4-isopropyl-benzenesulfonyl)-piperazine-2-carboxylic acid 4-trifluoromethyl-benzylamide] | > 1 | > 1 | – | – |
| CC(=O)N1CCN(S(=O)(=O)c2ccc(C(C)C)cc2)[C@@H](C(=O)NCc2ccc(C3CC3)cc2C)C1 [Example 323, (R)-4-acetyl-1-(4-isopropyl-benzenesulfonyl)-piperazine-2-carboxylic acid 4-cyclopropyl-2-methyl-benzylamide] | < 0.1 | < 0.1 | – | – |
| CC(=O)N1CCN(S(=O)(=O)c2ccc(OC(F)(F)F)cc2)[C@@H](C(=O)NCc2ccc(OC(F)(F)F)c(F)c2)C1 [Example 1103, (R)-4-acetyl-1-(4-trifluoromethoxy-benzenesulfonyl)-piperazine-2-carboxylic acid 3-fluoro-4-trifluoromethoxy-benzylamide] | – | – | 0.1 to 1 | 0.1 to 1 |
| O=C(NCc1ccc(OC(F)(F)F)cc1)[C@H]1CN(c2nc3c(CO)nncc3s2)CCN1S(=O)(=O)c1ccc(OC(F)(F)F)cc1 [Example 940, (R)-4-(4-hydroxymethyl-thiazolo[4,5-d]pyridazin-2-yl)-1-(4-trifluoromethoxy-benzenesulfonyl)-piperazine-2-carboxylic acid 4-trifluoromethoxy-benzylamide] | – | – | < 0.1 | < 0.1 |
| O=C(NCc1ccc(OC(F)(F)F)cc1)[C@H]1CN(c2nc3nc(C4CCC4)ncc3s2)CCN1S(=O)(=O)c1ccc(OC(F)(F)F)cc1 [Example 1069, (R)-4-(5-cyclobutyl-thiazolo[4,5-d]pyrimidin-2-yl)-1-(4-trifluoromethoxy-benzenesulfonyl)-piperazine-2-carboxylic acid 4-trifluoromethoxy-benzylamide] | – | – | < 0.1 | < 0.1 |
